Experimental data as given in patent publication US8785614B2, “Aberrantly methylated genes in pancreatic cancer” (The Johns Hopkins University, priority 2003, dated 2014).
Like-named read-outs stand apart in the source and are kept apart here.

Test system: MiaPaCa2 pancreatic cancer cell line
Experimental: Mock-treated cells were cultured with the equivalent volume of PBS alone.
Total RNA was isolated from cultured cells using TRIZOL reagent (invitrogen, Carlsbad, Calif.) and purified using RNeasy Mini Kit (Qiagen, Valencia, Calif.). First- and second-stranded cDNA was synthesized from 10 μg of total RNA using 17-dT) primer (Genset Corp., La Jolla, Calif.) and Superscript Choice system (Invitrogen). Labeled cRNA was synthesized from the purified cDNA by in vitro transcription reaction using the BioArray High Yield RNA Transcript Labeling Kit (Enzo Diagnostics, Inc., Farmingdale, N.Y.) at 37° C. for 6 h. The cRNA was fragmented at 94° C. for 35 min. in a fragmentation buffer [40 mM Tris-acetate @ pH 8.1, 100 mM potassium acestate, and 30 mM magnesium acetate]. The fragmented cRNA was then hybridized to the Human Genome U133A chips (Affymetrix, Santa Clara, Calif.) with 18462 unique gene/EST transcripts at 45° C. for 16 h. The washing and staining procedure was performed in the Affymetrix Fluidics Station according to the manufacturer's instructions. The probes were then scanned using a laser scanner, and signal intensity for each transcript (background-subtracted and adjusted for noise) was calculated using Microarray Suite Software 5.0 (Affymetrix).
Fold change analysis of signal intensities obtained from oligonucleotide microarrays between the two treatment groups was performed using Data Mining software (Afrymetrix).
The global changes in gene expression proxies induced by 5Aza-dC in four pancreatic cancer cell lines (AsPCl, Hs766T, MiaPaCa2, and Panel) were determined using the Afrymetrix U133 oligonucleotide microarrays with 18462 probes sets (transcripts) covering over 13000 full-length sequences of known genes.

Nc1ncn([C@H]2C[C@H](O)[C@@H](CO)O2)c(=O)n1 [5Aza-dC, 5 aza 2′ deoxycytidine]
Fold-change after 5Aza-dC treatment (ANGPT2, MiaPaCa2): 2.27 fold
Fold-change after 5Aza-dC treatment (BARD1, MiaPaCa2): −1.3 fold
Fold-change after 5Aza-dC treatment (BNIP3, MiaPaCa2): 21.32 fold
Fold-change after 5Aza-dC treatment (BST2, MiaPaCa2): 8.59 fold
Fold-change after 5Aza-dC treatment (CACNA1G, MiaPaCa2): 1.61 fold
Fold-change after 5Aza-dC treatment (CCNE2, MiaPaCa2): 1.09 fold
Fold-change after 5Aza-dC treatment (CDH3, MiaPaCa2): 5.79 fold
Fold-change after 5Aza-dC treatment (CDKN1A (p21), MiaPaCa2): 7.04 fold
Fold-change after 5Aza-dC treatment (CDKN1C, MiaPaCa2): 2.28 fold
Fold-change after 5Aza-dC treatment (CLDN5, MiaPaCa2): 1.67 fold
Fold-change after 5Aza-dC treatment (CSF1, MiaPaCa2): 4.23 fold
Fold-change after 5Aza-dC treatment (DR3, MiaPaCa2): 2.12 fold
Fold-change after 5Aza-dC treatment (FOXE1, MiaPaCa2): 3.8 fold
Fold-change after 5Aza-dC treatment (GAGE1, MiaPaCa2): 6.7 fold
Fold-change after 5Aza-dC treatment (GAGE3, MiaPaCa2): 15.22 fold
Fold-change after 5Aza-dC treatment (GAGE4, MiaPaCa2): 47.6 fold
Fold-change after 5Aza-dC treatment (GAGE6, MiaPaCa2): 24.03 fold
Fold-change after 5Aza-dC treatment (GAGE7, MiaPaCa2): 54.35 fold
Fold-change after 5Aza-dC treatment (HOXA1, MiaPaCa2): 2.56 fold
Fold-change after 5Aza-dC treatment (IGF2, MiaPaCa2): 0.81 fold
Fold-change after 5Aza-dC treatment (IL1R1, MiaPaCa2): −1.77 fold
Fold-change after 5Aza-dC treatment (ISG20, MiaPaCa2): 21.28 fold
Fold-change after 5Aza-dC treatment (JPH3, MiaPaCa2): 1.4 fold
Fold-change after 5Aza-dC treatment (KLK10, MiaPaCa2): 136.95 fold
Fold-change after 5Aza-dC treatment (LDOC1, MiaPaCa2): −1.01 fold
Fold-change after 5Aza-dC treatment (LHX1, MiaPaCa2): 1.89 fold
Fold-change after 5Aza-dC treatment (MAGE1, MiaPaCa2): 2.27 fold
Fold-change after 5Aza-dC treatment (MATN1, MiaPaCa2): −1.01 fold
transcripts with >5-fold increase, share of the 18462 transcripts analyzed (MiaPaCa2): 1.4%
transcripts with substantial increase (>5-fold) in signal intensities (MiaPaCa2, vs mock-treated): 251 transcripts
Fold-change after 5Aza-dC treatment (NEFH, MiaPaCa2): 6.73 fold
Fold-change after 5Aza-dC treatment (NPTX2, MiaPaCa2): 6.4 fold
Fold-change after 5Aza-dC treatment (PAX6, MiaPaCa2): −1.12 fold
Fold-change after 5Aza-dC treatment (PDYN, MiaPaCa2): 3.48 fold
Fold-change after 5Aza-dC treatment (PLAT, MiaPaCa2): 6.4 fold
Fold-change after 5Aza-dC treatment (PLEK2, MiaPaCa2): 7.5 fold
Fold-change after 5Aza-dC treatment (SARP2, MiaPaCa2): 38.33 fold
Fold-change after 5Aza-dC treatment (SMARCA1, MiaPaCa2): −1.07 fold
Fold-change after 5Aza-dC treatment (ST14, MiaPaCa2): 1.48 fold
Fold-change after 5Aza-dC treatment (TIMP3, MiaPaCa2): 1 fold
Fold-change after 5Aza-dC treatment (TJP2, MiaPaCa2): 8.61 fold
Fold-change after 5Aza-dC treatment (TNF, MiaPaCa2): 31.63 fold
Fold-change after 5Aza-dC treatment (UCHL1, MiaPaCa2): 5.27 fold
Fold-change after 5Aza-dC treatment (WNT7A, MiaPaCa2): 6.24 fold
Fold-change after 5Aza-dC treatment (XAGE-1, MiaPaCa2): 12.99 fold
Fold-change after 5Aza-dC treatment (granulocytemacrophage colony-stimulating factor (M11734), MiaPaCa2): 3.97 fold
Fold-change after 5Aza-dC treatment (interferon, alpha-inducible protein (NM_022873), MiaPaCa2): 11.03 fold
Fold-change after 5Aza-dC treatment (p53-induced protein (PIGII), MiaPaCa2): 5.45 fold
Fold-change after 5Aza-dC treatment (reprimo, MiaPaCa2): −1.09 fold
Fold-change after 5Aza-dC treatment (stratifin (14-3-3 sigma), MiaPaCa2): 34.77 fold
Fold-change after 5Aza-dC treatment (stromal antigen 3 (STAG5), MiaPaCa2): 4.96 fold
Fold-change after 5Aza-dC treatment (testin, MiaPaCa2): 9.61 fold
